Reference: ChEMBL document CHEMBL1150823, “Two bioactive saponins from Albizia subdimidiata from the Suriname rainforest” (J Nat Prod, 2001)
In brackets after ≈: the same amount, converted by molar mass.

What was measured:
Saccharomyces cerevisiae [1] = experiment: DNA damaging activity against Saccharomyces cerevisiae 1138 assessed as concentration required to produce 12 mm zone of inhibition; assay type: functional
Saccharomyces cerevisiae [2] = experiment: DNA damaging activity against Saccharomyces cerevisiae 1140 assessed as concentration required to produce 12 mm zone of inhibition; assay type: functional
Saccharomyces cerevisiae [3] = experiment: DNA damaging activity against Saccharomyces cerevisiae 1353 assessed as concentration required to produce 12 mm zone of inhibition; assay type: functional
Saccharomyces cerevisiae [4] = experiment: DNA damaging activity against Saccharomyces cerevisiae Sc7 assessed as concentration required to produce 12 mm zone of inhibition; assay type: functional
A2780 = experiment: Cytotoxicity against human A2780 cells; assay type: functional, cell-based

Question: Which Activity (Saccharomyces cerevisiae [1]) does the source give for CC(=O)N[C@H]1[C@H](O[C@H]2CC[C@]3(C)[C@H]4CC=C5[C@@H]6CC(C)(C)CC[C@]6(C(=O)O)CC[C@@]5(C)[C@]4(C)CC[C@H]3C2(C)C)O[C@H](CO[C@@H]2OC[C@H](O)[C@H](O)[C@H]2O[C@@H]2OC[C@@H](O)[C@H](O)[C@H]2O)[C@@H](O)[C@@H]1O [ALBIZIATRIOSIDE A] here?
Answer: The Activity was 30 µg/mL.

Question: And the Activity (Saccharomyces cerevisiae [2])?
Answer: The Activity was 35 µg/mL.

Question: And the Activity (Saccharomyces cerevisiae [3])?
Answer: The Activity was 35 µg/mL.

Question: What about the Activity (Saccharomyces cerevisiae [4]) of the same compound?
Answer: Its Activity is 30 µg/mL.

Question: And the IC50 (A2780)?
Answer: Its IC50 is 0.9 µg/mL (≈ 0.974 µM).

Question: For CC(=O)N[C@H]1[C@H](O[C@H]2CC[C@]3(C)[C@H]4CC=C5[C@@H]6CC(C)(C)CC[C@]6(C(=O)O)CC[C@@]5(C)[C@]4(C)CC[C@H]3C2(C)C)O[C@H](CO[C@@H]2OC[C@H](O)[C@H](O)[C@H]2O[C@@H]2OC[C@H](O)[C@H](O)[C@H]2O)[C@@H](O)[C@@H]1O, which Activity (Saccharomyces cerevisiae [1]) is on record?
Answer: The Activity was 25 µg/mL.

Question: And the Activity (Saccharomyces cerevisiae [2])?
Answer: Its Activity is 40 µg/mL.

Question: What about the Activity (Saccharomyces cerevisiae [3]) of the same compound?
Answer: Its Activity is 30 µg/mL.

Question: What about the Activity (Saccharomyces cerevisiae [4]) of the same compound?
Answer: Its Activity is 45 µg/mL.

Question: And the IC50 (A2780)?
Answer: The IC50 was 0.8 µg/mL (≈ 0.866 µM).
